{"source": "paper PMC4915154", "about": "“Development of background-free tame fluorescent probes for intracellular live cell imaging” (Nature Communications, 2016)", "key": {"[1]": {"test_system": "mitochondria in U-2 OS cells", "test": "Mitochondria labelling with AzG-1 in cells pre-treated with TPP-BCN", "assay_type": "cell-based, human", "settings": "U-2 OS cells pre-treated with TPP-BCN, 10 μM AzG-1, 2 h", "procedure": "(§1) Excited with the results, we further challenged the model and developed another ‘tame' azide-bearing probe, AzG-1, to label molecules in mitochondria and the fancy tubulin protein in living cells (Figs 4a,b). To target mitochondria, U-2 OS cells were pre-treated with TPP-BCN (an analogue of triphenylphosphonium) before labelled with 10 μM AzG-1. For tubulin labelling, a cyclooctyne-containing UAA, N-ɛ-(cyclooct-2-yn-1-yloxy)carbonyl)L-lysine (CoK) was selected for incorporating into tubulin and reacting with AzG-1 via SPAAC.[29] CHO-K1 cells were co-transfected with plasmids pCoKRS-tRNA and pTub-26TAG to incorporate CoK into α-tubulin at position 26. Site-specific incorporation of CoK using an orthogonal tRNA^Pyl/CoKRS pair was confirmed via western blot analysis (Supplementary Figs. 19 and 20). After incorporation of CoK, cells were then labelled with 10 μM AzG-1 at 37 °C. CHO-K1 cells transfected with plasmid pEGFP-Tubwt expressing EGFP-fused wild-type α-tubulin was used as a control. Confocal fluorescence images were then taken AW of unreacted AzG-1.\n(§2) Figure 4 Live cell imaging with AzG-1 (a) Chemical structures of azide-bearing probe AzG-1 and its descriptor values. […] (c) Fluorescence imaging of mitochondria in U-2 OS cells labelled with AzG-1. […] (d) Fluorescence imaging of α-tubulin in live CHO-K1 cells. […]"}, "[2]": {"test_system": "CoK-bearing α-tubulin in HeLa cells", "test": "Protein labelling on live cells using CoK (α-tubulin), HeLa", "assay_type": "cell-based", "settings": "CoK-bearing α-tubulin versus wild type", "procedure": "CHO-K1 or HeLa cells were grown in DMEM-low glucose 1 g l^−1 (Gibco) supplemented with 10% FBS (Gibco) in eight-well plate (ibid). At 70∼80% confluency, cells were transfected using 4 μl iN-fect in vitro transfection reagent with 100 ng pCoKRS-tRNA and 900 ng pTub-26TAG or with 900 ng pTubwt. After 6 h of incubation, media was replaced with fresh media (DMEM-low glucose medium with 10% FBS, 1% Pen-Strep, 2 Mm […]) containing 0.25 Mm CoK. After an additional 36 h, media was exchanged with normal growth media without CoK and cells were incubated for 2 h and washed (four times) to remove remaining CoK. Next, growth media containing 1 μM AzG-1 was added to the plates, and cells were incubated for 2 h with four times of washing (30 min each time) using growth media. High-resolution images of live cells were obtained using a Zeiss LSM510 META laser scanning confocal microscope.\nSupplementary Figure 21 Fluorescence imaging of α-tubulin in live HeLa.\nHeLa cells were co-transfected with plasmids pCoKRS-tRNA and pTub-26TAG or plasmid pTubwt followed by sequential treatment with CoK and AzG-1 as described above. Live cell […]\nin HeLa cells. Scale bar, 10 μm.\n(1 picture or pasted object on this page, not shown here)"}, "[3]": {"test_system": "CoK-bearing α-tubulin in CHO-K1 cells", "test": "Protein labelling on live cells using CoK (α-tubulin), CHO-K1", "assay_type": "cell-based", "settings": "CoK at position 26 of α-tubulin, 10 μM AzG-1, 2 h, 37 °C", "procedure": "as §1, §2"}}, "data": [{"smiles": "CC1=CC(C)=[N+]2C1=C(CCC(=O)NCCN=[N+]=[N-])c1c(C)cc(C)n1[B-]2(F)F", "note": "[AzG-1]", "values": [{"measurement": "Labelling of mitochondria", "setting": "[1]", "value": "specifically labelled mitochondria"}, {"measurement": "Labelling of α-tubulin", "setting": "[2]", "value": "conjugated specifically with CoK-bearing α-tubulin"}, {"measurement": "Labelling of α-tubulin", "setting": "[3]", "value": "conjugated specifically with CoK-bearing α-tubulin"}]}]}
